Measured values reported in patent publication US20070231828A1, “Methods of predicting behavior of cancers” (Johns Hopkins University, priority 2003, published 2007).
“Also recorded” adds a separate entry of the source. Like-named read-outs stand apart in the source and are kept apart here.

Key:
prostate epithelium = assay: Prostate regeneration in castrated mice; type: in vivo, C57B16/J mice; conditions: castrates
Excerpt: Prostates were collected, weighed, and processed for histology.

AT6.3 cells [1] = assay: Quantitative RT-PCR of transcripts; type: cell-based, rat
Excerpt: (§1) Amplification of Hh pathway components was normalized in qRT-PCR experiments to that of endogenous phosphoglycerate kinase in each sample. Oligonucleotide primers used in quantitative reeal-time and conventional amplification of reverse transcribed mRNA (RT-PCR) are shown in Table 4.

[2] = system: AT6.3 subcutaneous tumors
22RV1-GLI cells = assay: In vitro Matrigel invasion assay; type: cell-based, human
Excerpt: (§2) Cells reaching the lower chamber were counted according to the manufacturer's protocol. Results were normalized to viable cell mass assayed as described above.

22RV1 cells = assay: In vitro Matrigel invasion assay; type: cell-based, human
Excerpt: as §2

AT2.1-GLI cells = assay: In vitro Matrigel invasion assay; type: cell-based, rat; conditions: 3 μM pre-treatment 24 hours
Excerpt: as §2

AT6.3 cells [3] = assay: In vitro Matrigel invasion assay; type: cell-based, rat; conditions: 3 μM pre-treatment 24 hours, normalized to viable cell mass
Excerpt: as §2

[4] = system: human prostate cancer cell lines; assay: Quantitative RT-PCR of transcripts; type: cell-based
Excerpt: as §1

PC3 xenograft tumors = conditions: 50 mg/kg daily s.c.
Protocol: (§3) CWR22RV1 (n=14) and PC3tumor xenografts (n=20) were grown by injecting 0.1 ml of Hanks Balanced Salt Solution and Matrigel (1:1) (Beckton Dickinson, Franklin Lakes, N.J.) containing 2.5×10^6 cells subcutaneously at each of two locations (right anterior and posterior flank) per athymic mouse. […] Animals were euthanized and tumors harvested for Ki-67 staining. […] Mice were observed daily for distress and experiments were carried out according to approved institutional protocols. Individual tumor volumes were plotted and regression curves were generated using analysis software to determine individual tumor growth rates.

22RV1 xenograft tumors = conditions: 50 mg/kg daily s.c.
Protocol: as §3

[5] = system: AT2.1 subcutaneous tumors; assay: Dunning rat prostate carcinoma xenografts in athymic mice; type: in vivo; conditions: s.c.

C[C@]12CCC(=O)C[C@@H]1CC[C@@H]1[C@@H]2CC[C@]2(C)[C@@H](O)CC[C@@H]12 [dihydrotestosterone]
prostate regeneration (prostate epithelium; 50 mg/kg/d for ten days after seven days of androgen withdrawal): re-growth of prostate of nearly normal size

CC1=C2C[C@H]3[C@@H](CC=C4C[C@@H](O)CC[C@@]43C)[C@@H]2CC[C@]12O[C@@H]1C[C@H](C)CN[C@H]1[C@H]2C [cyclopamine]
Snail expression (AT6.3 cells [1]; AT6.3 cells): suppressed
expression of E-cadherin transcripts (AT6.3 cells [1]; rat metastasis-derived prostate cancer cell line): increased expression
Growth rate (% tumor volume/day) ([2]; i.p. 10 mg/kg): 9.2 ± 2.4 % tumor volume/day
Median Survival ([2]; i.p. 10 mg/kg/day): 19 days
metastasis ([2]; i.p. 10 mg/kg/day): inhibited metastasis
time by which all animals were dead ([2]; i.p. 10 mg/kg/day): ≤ 26 days
Growth rate (% tumor volume/day) ([2]; i.p. 50 mg/kg): 4.9 ± 1.0 % tumor volume/day
Median Survival ([2]; i.p. 50 mg/kg): No death
metastasis ([2]; i.p. 50 mg/kg/day): blocked metastasis
death ([2]; i.p. 50 mg/kg/day, 50 day treatment period): prevented death
Median Survival ([2]; s.c. 50 mg/kg): No tumors
invasiveness (22RV1-GLI cells): not affected
invasiveness (22RV1 cells): blocked
invasiveness (AT2.1-GLI cells): did not reduce the invasiveness
reduction of invasiveness (AT6.3 cells [3]): approximately nine-fold
expression of transcripts encoding c-myc [4]: reduced expression
expression of transcripts encoding cyclin D1 [4]: reduced expression
transcription of the gene encoding Nestin [4]: suppressed transcription
expression of E-cadherin transcripts ([4]; human metastasis-derived prostate cancer cell lines): increased expression
expression of Snail transcripts ([4]; human prostate cancer cell lines): decreased expression
expression of the metastasis suppressor Ndrgl ([4]; human prostate cancer cells): increased expression
time to complete regression of the tumors (PC3 xenograft tumors): 20 to 24 days
time to complete regression of the tumors (22RV1 xenograft tumors): 20 to 24 days
Median Survival [5]: No tumors
prostate regeneration (prostate epithelium; DHT plus cyclopamine 50 mg/kg/day s.c. for 10 days): abolished prostate regeneration; also recorded: completely blocked prostate regeneration
